Source: article PMC5760531, “Action Potential Recording and Pro-arrhythmia Risk Analysis in Human Ventricular Trabeculae” (Frontiers in Physiology, 2018)

Assays:
[1] = tested on: human ventricular trabeculae; assay: Action potential recording and pro-arrhythmic score analysis in human ventricular trabeculae (hVT);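 note: sharp microelectrode action potential recordings at 37°C in Tyrode-perfused trabeculae, 4 cumulative concentrations each applied 31 min, values averaged over last 30 APs, vehicle 0.1% DMSO as control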
Procedure: Briefly, the human heart was transferred into a dissection vessel containing a cold (4°C), fresh proprietary dissection solution. The heart was maintained completely submerged in dissection solution. Ventricular trabeculae were dissected and transferred to the recording chamber.
Briefly, a single tissue was mounted into the experimental chamber filled with oxygenated Tyrode's external solution. The temperature of the solution was maintained at 37°C with flow rate at 5 mL per minute. The tissue was allowed to equilibrate for 30–60 min with stimulation (3 V, 3 ms) at a frequency of 1.0 Hz. High impedance borosilicate microelectrodes were prepared with a tip resistance of 10–20 MΩ once filled with 3 M KCl. Upon tissue impalement, the membrane potential was allowed to stabilize (typically, around −85 mV). Tissues with resting membrane potentials more positive than −75 mV were rejected. Bipolar stimulation at 1.5x threshold was applied and recordings were performed in continuous mode with sampling at 20 kHz using ADInstruments and LabChart Software.
Interruption of perfusion/oxygenation; (2). Absence of Aps following stimulation at baseline; (3). Time frame of drug exposure not respected; (4). Unstable response to stimulation at baseline; (5). Resting membrane potential (RMP) > −75 mV; 7). Maximal amplitude of AP (AMAX) <70 mV; 8). AP duration at 90% repolarization (APD90) <200 ms or >450 ms.
Experimental Procedure: Each test article was evaluated at 4 concentrations in 4 ventricular trabeculae derived from a minimum of 2 donor hearts. Testing concentrations were chosen based upon human free ETPC, aiming to cover 1–100-fold of human free ETPC. […] Briefly, following stabilization of each tissue, APs were collected and assessed for 31 min in vehicle control solution (Tyrode with 0.1% DMSO) at stimulation frequencies of 1 Hz for 25 min, 2 Hz for 3 min and then 1 Hz for 3 min. Following this vehicle control period, 4 concentrations of a test compound were applied sequentially and cumulatively. Each concentration was applied for 31 min with the same stimulation sequence as in vehicle controls.
For each frequency tested, the last 30 APs acquired at the end of the period were averaged for vehicle controls and for each test article concentration. Analysis at 1 Hz included only the last 30 APs of the initial 25-min incubation period. The following AP parameters and pro-arrhythmia variables were analyzed offline upon the completion of recordings:
• RMP (mV) • AMAX (mV) • AP duration at percent repolarization (APD20, APD30, APD50, APD60, APD90) (ms) • Short term variability analysis of AP duration (STV): Beat-to-beat variability of repolarization was quantified as STV from APD90 Poincare plots over a period of 30 sec.
Compound effects were quantified relative to the data collected during the vehicle control period (see Figure 1). […] Additionally, based on AnaBios historical data, threshold values for changes over baseline control for AP instability, APD alternans, Maximum APD dispersion and ERP (APD) were based upon an effect level of 10%. When applicable, differences were tested for statistical significance using the unpaired Student's t-test. A value of P < 0.05 was considered significant.
AP parameters and pro-arrhythmia variables were combined into a meaningful, single score to assess the pro-arrhythmic risk of a compound at each concentration tested. The pro-arrhythmic potential of compounds at 1 or 2 Hz was determined by assigning a weighted scale to each variable (Table 1).

[2] = human free (unbound) effective therapeutic plasma concentration used to calculate multiples; cited from earlier work
[3] = 1Hz, 1.6-FOLD free ETPC (0.006µM)
[4] = 1Hz, 17-FOLD free ETPC (0.006µM)
[5] = 1Hz, 167-FOLD free ETPC (0.006µM)
[6] = 1Hz, 1667-FOLD free ETPC (0.006µM)
[7] = 2Hz, 1.6-FOLD free ETPC (0.006µM)
[8] = 2Hz, 17-FOLD free ETPC (0.006µM)
[9] = 2Hz, 167-FOLD free ETPC (0.006µM)
[10] = 2Hz, 1667-FOLD free ETPC (0.006µM)

Structure (SMILES): COc1cc2nc(N(C)CCCNC(=O)C3CCCO3)nc(N)c2cc1OC (stereo not shown) [ALFUZOSIN, Alfuzosin]
- AMAX [1, 3]: 110
- AMAX percentage change compared to vehicle control [1, 3]: 2%
- APD30 [1, 3]: 163
- APD30 percentage change compared to vehicle control [1, 3]: 4%
- APD50 [1, 3]: 214
- APD50 percentage change compared to vehicle control [1, 3]: 4%
- APD90 [1, 3]: 287
- APD90 percentage change compared to vehicle control [1, 3]: 3%
- Alternans [1, 3]: 0.33
- Alternans percentage change compared to vehicle control [1, 3]: -14%
- Beat Escape [1, 3]: 0
- Beat Escape percentage change compared to vehicle control [1, 3]: 0%
- EADs [1, 3]: 0
- EADs percentage change compared to vehicle control [1, 3]: 0%
- ERP [1, 3]: 0.42
- ERP percentage change compared to vehicle control [1, 3]: 0%
- Max Dispersion [1, 3]: 2.40
- Max Dispersion percentage change compared to vehicle control [1, 3]: 28%
- RMP [1, 3]: -88
- RMP percentage change compared to vehicle control [1, 3]: 3%
- Refractoriness Escape [1, 3]: 0
- Refractoriness Escape percentage change compared to vehicle control [1, 3]: 0%
- STV [1, 3]: 0.30
- STV percentage change compared to vehicle control [1, 3]: 9%
- Triangulation [1, 3]: 123
- Triangulation percentage change compared to vehicle control [1, 3]: -1%
- AMAX [1, 4]: 110
- AMAX percentage change compared to vehicle control [1, 4]: 1%
- APD30 [1, 4]: 159
- APD30 percentage change compared to vehicle control [1, 4]: 2%
- APD50 [1, 4]: 209
- APD50 percentage change compared to vehicle control [1, 4]: 2%
- APD90 [1, 4]: 284
- APD90 percentage change compared to vehicle control [1, 4]: 1%
- Alternans [1, 4]: 0.34
- Alternans percentage change compared to vehicle control [1, 4]: -13%
- Beat Escape [1, 4]: 0
- Beat Escape percentage change compared to vehicle control [1, 4]: 0%
- EADs [1, 4]: 0
- EADs percentage change compared to vehicle control [1, 4]: 0%
- ERP [1, 4]: 0.44
- ERP percentage change compared to vehicle control [1, 4]: 4%
- Max Dispersion [1, 4]: 2.18
- Max Dispersion percentage change compared to vehicle control [1, 4]: 16%
- RMP [1, 4]: -88
- RMP percentage change compared to vehicle control [1, 4]: 3%
- Refractoriness Escape [1, 4]: 0
- Refractoriness Escape percentage change compared to vehicle control [1, 4]: 0%
- STV [1, 4]: 0.26
- STV percentage change compared to vehicle control [1, 4]: -6%
- Triangulation [1, 4]: 126
- Triangulation percentage change compared to vehicle control [1, 4]: 1%
- AMAX [1, 5]: 110
- AMAX percentage change compared to vehicle control [1, 5]: 2%
- APD30 [1, 5]: 161
- APD30 percentage change compared to vehicle control [1, 5]: 3%
- APD50 [1, 5]: 213
- APD50 percentage change compared to vehicle control [1, 5]: 4%
- APD90 [1, 5]: 291
- APD90 percentage change compared to vehicle control [1, 5]: 4%
- Alternans [1, 5]: 0.45
- Alternans percentage change compared to vehicle control [1, 5]: 16%
- Beat Escape [1, 5]: 0
- Beat Escape percentage change compared to vehicle control [1, 5]: 0%
- EADs [1, 5]: 0
- EADs percentage change compared to vehicle control [1, 5]: 0%
- ERP [1, 5]: 0.44
- ERP percentage change compared to vehicle control [1, 5]: 4%
- Max Dispersion [1, 5]: 2.43
- Max Dispersion percentage change compared to vehicle control [1, 5]: 29%
- RMP [1, 5]: -89
- RMP percentage change compared to vehicle control [1, 5]: 4%
- Refractoriness Escape [1, 5]: 0
- Refractoriness Escape percentage change compared to vehicle control [1, 5]: 0%
- STV [1, 5]: 0.29
- STV percentage change compared to vehicle control [1, 5]: 7%
- Triangulation [1, 5]: 130
- Triangulation percentage change compared to vehicle control [1, 5]: 5%
- AMAX [1, 6]: 109
- AMAX percentage change compared to vehicle control [1, 6]: 1%
- APD30 [1, 6]: 162
- APD30 percentage change compared to vehicle control [1, 6]: 4%
- APD50 [1, 6]: 222
- APD50 percentage change compared to vehicle control [1, 6]: 9%
- APD90 [1, 6]: 319
- APD90 percentage change compared to vehicle control [1, 6]: 14%
- Alternans [1, 6]: 0.72
- Alternans percentage change compared to vehicle control [1, 6]: 86%
- Beat Escape [1, 6]: 0
- Beat Escape percentage change compared to vehicle control [1, 6]: 0%
- EADs [1, 6]: 0
- EADs percentage change compared to vehicle control [1, 6]: 0%
- ERP [1, 6]: 0.47
- ERP percentage change compared to vehicle control [1, 6]: 12%
- Max Dispersion [1, 6]: 3.05
- Max Dispersion percentage change compared to vehicle control [1, 6]: 63%
- RMP [1, 6]: -88
- RMP percentage change compared to vehicle control [1, 6]: 4%
- Refractoriness Escape [1, 6]: 0
- Refractoriness Escape percentage change compared to vehicle control [1, 6]: 0%
- STV [1, 6]: 0.46
- STV percentage change compared to vehicle control [1, 6]: 75%
- Triangulation [1, 6]: 158
- Triangulation percentage change compared to vehicle control [1, 6]: 28%
- AMAX [1, 7]: 109
- AMAX percentage change compared to vehicle control [1, 7]: 1%
- APD30 [1, 7]: 120
- APD30 percentage change compared to vehicle control [1, 7]: 2%
- APD50 [1, 7]: 163
- APD50 percentage change compared to vehicle control [1, 7]: 3%
- APD90 [1, 7]: 234
- APD90 percentage change compared to vehicle control [1, 7]: 2%
- Alternans [1, 7]: 0.92
- Alternans percentage change compared to vehicle control [1, 7]: 6%
- Beat Escape [1, 7]: 0
- Beat Escape percentage change compared to vehicle control [1, 7]: 0%
- EADs [1, 7]: 0
- EADs percentage change compared to vehicle control [1, 7]: 0%
- ERP [1, 7]: 0.45
- ERP percentage change compared to vehicle control [1, 7]: 1%
- Max Dispersion [1, 7]: 3.95
- Max Dispersion percentage change compared to vehicle control [1, 7]: 12%
- RMP [1, 7]: -87
- RMP percentage change compared to vehicle control [1, 7]: 2%
- Refractoriness Escape [1, 7]: 0
- Refractoriness Escape percentage change compared to vehicle control [1, 7]: 0%
- STV [1, 7]: 0.64
- Triangulation [1, 7]: 115
- Triangulation percentage change compared to vehicle control [1, 7]: 1%
- AMAX [1, 8]: 110
- AMAX percentage change compared to vehicle control [1, 8]: 2%
- APD30 [1, 8]: 116
- APD30 percentage change compared to vehicle control [1, 8]: -1%
- APD50 [1, 8]: 160
- APD50 percentage change compared to vehicle control [1, 8]: 1%
- APD90 [1, 8]: 233
- APD90 percentage change compared to vehicle control [1, 8]: 1%
- Alternans [1, 8]: 0.99
- Alternans percentage change compared to vehicle control [1, 8]: 14%
- Beat Escape [1, 8]: 0
- Beat Escape percentage change compared to vehicle control [1, 8]: 0%
- EADs [1, 8]: 0
- EADs percentage change compared to vehicle control [1, 8]: 0%
- ERP [1, 8]: 0.47
- ERP percentage change compared to vehicle control [1, 8]: 4%
- Max Dispersion [1, 8]: 3.93
- Max Dispersion percentage change compared to vehicle control [1, 8]: 11%
- RMP [1, 8]: -88
- RMP percentage change compared to vehicle control [1, 8]: 4%
- Refractoriness Escape [1, 8]: 0
- Refractoriness Escape percentage change compared to vehicle control [1, 8]: 0%
- STV [1, 8]: 0.66
- Triangulation [1, 8]: 118
- Triangulation percentage change compared to vehicle control [1, 8]: 3%
- AMAX [1, 9]: 110
- AMAX percentage change compared to vehicle control [1, 9]: 2%
- APD30 [1, 9]: 115
- APD30 percentage change compared to vehicle control [1, 9]: -1%
- APD50 [1, 9]: 161
- APD50 percentage change compared to vehicle control [1, 9]: 2%
- APD90 [1, 9]: 238
- APD90 percentage change compared to vehicle control [1, 9]: 3%
- Alternans [1, 9]: 0.83
- Alternans percentage change compared to vehicle control [1, 9]: -4%
- Beat Escape [1, 9]: 0
- Beat Escape percentage change compared to vehicle control [1, 9]: 0%
- EADs [1, 9]: 0
- EADs percentage change compared to vehicle control [1, 9]: 0%
- ERP [1, 9]: 0.48
- ERP percentage change compared to vehicle control [1, 9]: 7%
- Max Dispersion [1, 9]: 2.88
- Max Dispersion percentage change compared to vehicle control [1, 9]: -18%
- RMP [1, 9]: -88
- RMP percentage change compared to vehicle control [1, 9]: 3%
- Refractoriness Escape [1, 9]: 0
- Refractoriness Escape percentage change compared to vehicle control [1, 9]: 0%
- STV [1, 9]: 0.63
- Triangulation [1, 9]: 123
- Triangulation percentage change compared to vehicle control [1, 9]: 8%
- AMAX [1, 10]: 108
- AMAX percentage change compared to vehicle control [1, 10]: 0%
- APD30 [1, 10]: 115
- APD30 percentage change compared to vehicle control [1, 10]: -1%
- APD50 [1, 10]: 165
- APD50 percentage change compared to vehicle control [1, 10]: 5%
- APD90 [1, 10]: 258
- APD90 percentage change compared to vehicle control [1, 10]: 12%
- Alternans [1, 10]: 0.78
- Alternans percentage change compared to vehicle control [1, 10]: -10%
- Beat Escape [1, 10]: 0
- Beat Escape percentage change compared to vehicle control [1, 10]: 0%
- EADs [1, 10]: 0
- EADs percentage change compared to vehicle control [1, 10]: 0%
- ERP [1, 10]: 0.50
- ERP percentage change compared to vehicle control [1, 10]: 11%
- Max Dispersion [1, 10]: 2.72
- Max Dispersion percentage change compared to vehicle control [1, 10]: -23%
- RMP [1, 10]: -87
- RMP percentage change compared to vehicle control [1, 10]: 2%
- Refractoriness Escape [1, 10]: 0
- Refractoriness Escape percentage change compared to vehicle control [1, 10]: 0%
- STV [1, 10]: 0.55
- Triangulation [1, 10]: 142
- Triangulation percentage change compared to vehicle control [1, 10]: 26%
- Free ETPC [2]: 0.006 µM
